# Where a name gives a salt, the structure may show the parent alone. Read-outs that look alike come from different tables or passages of the source.
# What was measured:
# E. coli ATCC 25922 = test: Antibiotic susceptibility testing with lysis buffer sample preparation and PB detection; type: cell-based; conditions: for MIC: E. coli ATCC 25922 spiked in blood and MH media, 16 hr of incubation; for growth of bacteria (OD value) with increase in antibiotic concentration: ampicillin 2 mg/L to 16 mg/L, gentamicin 0.5 mg/L to 8 mg/L, after 16 hr of incubation
# Source text: FIGS. 7 and 8 show antibiotic susceptibility testing. The lysis buffer based sample preparation method combined with detection using PB formation was used to perform antibiotic susceptibility testing (recommended by EUCAST [15]) using different concentration of ampicillin and gentamicin in separate experiments, on E. coli ATCC 25922 bacteria strain (10^6 CFU/mL) spiked in blood (sample) and in MH media (positive control). ‘MH+Lysis buffer’ is used as negative control (NC). […] The corresponding decrease in PB colour formation on the filter paper with increase in ampicillin and gentamicin concentration is shown on top of each bar in the graphs of the FIG. 7 and FIG. 8, respectively. The MIC of ampicillin and gentamicin was determined to be 16 and 8 mg/L respectively, which was in agreement with the MIC range provided by EUCAST for E. coli ATCC 25922.
Compound,"MIC (E. coli ATCC 25922; Escherichia coli, ATCC25922, read-out: MIC) [µg/mL]",growth of bacteria (OD value) with increase in antibiotic concentration (E. coli ATCC 25922),toxicity to bacteria (bacteria),MIC (E. coli ATCC 25922) [µg/mL]
CC1(C)S[C@@H]2[C@H](NC(=O)[C@H](N)c3ccccc3)C(=O)N2[C@H]1C(=O)O [ampicillin],16,growth of bacteria decreased,,
"O=C(O)CC(O)(CC(=O)O)C(=O)O [Citrate, ferric ammonium citrate]",,,not toxic,
gentamicin,,growth of bacteria decreased,,8
